According to article PMC9325707, “Vav2 is a novel APP-interacting protein that regulates APP protein level” (Scientific Reports, 2022):
Substitutions are numbered along the chain they refer to. Names and notes keep the numbering of the source. Non-standard residues stand in square brackets, D forms with d. Residues, ends and D or L forms follow the SMILES beside them. pY = N[C@@H](Cc1ccc(OP(=O)(O)O)cc1)C(=O)O

Experiments:
Vav2-SH2 domain [1] = target: T1, Vav2-SH2 domain (Homo sapiens, UniProt P52735); test: ITC binding of APP peptides to Vav2-SH2; conditions: 298 K, 10 mM Tris/HCl, 100 mM NaCl
T1 construct: the DNA fragment encoding the SH2 domain of Vav2 (residues 659–771) was cloned into a pET28a (+) (Novagen) plasmid; 6xHis (N, cleaved yes); made in house; host or cells: Escherichia coli BL21 (DE3)
T1 sequence (P52735 659-771): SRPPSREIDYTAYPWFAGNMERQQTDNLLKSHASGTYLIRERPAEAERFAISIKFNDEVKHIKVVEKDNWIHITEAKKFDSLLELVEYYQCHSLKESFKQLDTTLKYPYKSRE
From the text: For NMR and ITC experiments, the DNA fragment encoding the SH2 domain of Vav2 (residues 659–771) was cloned into a pET28a (+) (Novagen) plasmid as described previously, generating a fusion protein with an N-terminus 6 × His tag. For GST pull-down experiments, the Vav2-SH2 was subcloned into pGEX4T-1 vector. The APP expression plasmid pAPPsw and the Vav2 expression plasmid pCMV5-myc-Vav2 were constructed as previously described[55],[66]. Mutants were generated by PCR mediated site-directed mutagenesis. All the constructs were verified by DNA sequencing.
The recombinant plasmids harboring His-tagged or GST-tagged Vav2-SH2 were transformed into Escherichia coli BL21 (DE3) (Novagen) strain. Cells were grown at 37 °C up to an A600 nm of 0.8, and then were induced with 0.5 mM IPTG at 25 °C for 8 h. […] Protein concentrations were estimated with absorbance spectroscopy using the molar absorption coefficient. […]
ITC experiments were performed at 298 K on a PEAQ-ITC titration calorimeter (MicroCal, Northampton, MA). […] ITC data were analyzed with a single-site binding model using Microcal PEAQ-ITC software.

[2] = target: APP pY682 peptide (Homo sapiens) (UniProt P05067); conditions: cited from earlier work
APP pY682 peptide (Homo sapiens), sequence (P05067 whole entry, looked up, the tested form may be a part): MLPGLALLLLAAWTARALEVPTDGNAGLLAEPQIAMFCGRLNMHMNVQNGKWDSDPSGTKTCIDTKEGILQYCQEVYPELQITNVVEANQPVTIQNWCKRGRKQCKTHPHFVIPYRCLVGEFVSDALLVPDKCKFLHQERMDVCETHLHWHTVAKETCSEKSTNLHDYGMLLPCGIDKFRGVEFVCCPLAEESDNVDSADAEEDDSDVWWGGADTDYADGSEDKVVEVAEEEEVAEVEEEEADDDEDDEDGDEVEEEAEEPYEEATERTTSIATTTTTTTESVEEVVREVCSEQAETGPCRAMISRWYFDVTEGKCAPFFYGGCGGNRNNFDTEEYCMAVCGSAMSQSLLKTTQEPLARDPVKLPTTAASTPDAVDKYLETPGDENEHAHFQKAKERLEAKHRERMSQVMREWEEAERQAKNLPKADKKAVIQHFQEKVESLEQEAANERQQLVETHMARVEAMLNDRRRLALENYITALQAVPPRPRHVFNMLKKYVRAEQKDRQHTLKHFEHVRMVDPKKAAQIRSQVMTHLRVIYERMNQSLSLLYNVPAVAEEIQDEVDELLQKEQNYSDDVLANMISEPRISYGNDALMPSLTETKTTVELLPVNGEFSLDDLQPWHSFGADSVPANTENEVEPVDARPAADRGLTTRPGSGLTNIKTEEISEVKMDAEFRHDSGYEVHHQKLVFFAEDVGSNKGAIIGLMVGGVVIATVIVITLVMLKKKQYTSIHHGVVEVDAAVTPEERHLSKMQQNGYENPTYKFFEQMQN

Vav2-SH2 domain [3] = target: T1, Vav2-SH2 domain; test: NMR titration (2D 1H-15N HSQC) of 15N-labeled Vav2-SH2 with APP peptides; assay type: binding; conditions: 0.1 mM 15N-Vav2-SH2, 20 mM Tris/HCl, 100 mM NaCl, 3 mM DTT, 90% H2O/10% D2O, pH 7.0, 293 K, 600 MHz; protein:peptide up to 1:3 (APP-pY682) or 1:4 (APP-Y682)
Method: The recombinant plasmids harboring His-tagged or GST-tagged Vav2-SH2 were transformed into Escherichia coli BL21 (DE3) (Novagen) strain. Cells were grown at 37 °C up to an A600 nm of 0.8, and then were induced with 0.5 mM IPTG at 25 °C for 8 h. For the production of uniformly ^15N-labeled samples, cells were grown in minimal medium using ^15NH4CL (0.5 g/L) as the sole nitrogen source. ^15N-NH4Cl was purchased from Cambridge Isotope Laboratories, Inc. The His-tagged proteins were purified by a chelated-nickel column followed by Thrombin protease treatment to remove the tag as previous described. The GST and GST fusion proteins were purified using immobilized glutathione. All proteins were further purified on a Superdex75 gel-filtration column (GE Healthcare, Piscataway, NJ, USA). The purity of proteins was confirmed by SDS–PAGE. Protein concentrations were estimated with absorbance spectroscopy using the molar absorption coefficient. […]
The NMR sample of the apo Vav2-SH2 contained 0.1 mM of protein was dissolved in NMR buffer: 20 mM Tris/HCl with 100 mM NaCl, 3 mM DTT in 90% H2O, 10% D2O (pH 7.0). […] A series of ^1H–^15N HSQC spectra were recorded as the titrant gradually titrated into the protein solutions using the Bruker hsqcfpf3gpphwg pulse program. […] NMR data were processed with NMRPipe[67] and analyzed using Sparky3 (Goddard and Kneller, University of California, San Francisco). […]

full-length APPsw = test: GST pull-down of full-length APPsw from 20E2 cell lysate; assay type: binding; conditions: 20E2 cell lysate 0.2 mg, 1 mg GST fusion on glutathione-agarose, 2 h; western blot (C20)
Method: The recombinant plasmids harboring His-tagged or GST-tagged Vav2-SH2 were transformed into Escherichia coli BL21 (DE3) (Novagen) strain. Cells were grown at 37 °C up to an A600 nm of 0.8, and then were induced with 0.5 mM IPTG at 25 °C for 8 h. For the production of uniformly ^15N-labeled samples, cells were grown in minimal medium using ^15NH4CL (0.5 g/L) as the sole nitrogen source. ^15N-NH4Cl was purchased from Cambridge Isotope Laboratories, Inc. The His-tagged proteins were purified by a chelated-nickel column followed by Thrombin protease treatment to remove the tag as previous described. The GST and GST fusion proteins were purified using immobilized glutathione. All proteins were further purified on a Superdex75 gel-filtration column (GE Healthcare, Piscataway, NJ, USA). The purity of proteins was confirmed by SDS–PAGE. Protein concentrations were estimated with absorbance spectroscopy using the molar absorption coefficient.
One hundred microliter glutathione-agarose beads were incubated with 1 mg purified GST or indicated GST-SH2 fusions and the mutant GST-SH2^R680A for 2 h at 4 °C in GST binding buffer (20 mM Tris/HCl, pH 7.4, 150 mM NaCl and 1 mM EDTA, 0.5% TritonX-100). […] After washing 4 times with GST binding buffer, beads were boiled in SDS sample buffer, run on 12% SDS–PAGE gel and analyzed by Coomassie or immunoblotting.

Molecule: C[C@@H](O)[C@H](NC(=O)[C@@H]1CCCN1C(=O)[C@H](CC(N)=O)NC(=O)[C@H](CCC(=O)O)NC(=O)[C@H](Cc1ccc(OP(=O)(O)O)cc1)NC(=O)CNC(=O)[C@H](CC(N)=O)NC(=O)[C@@H](N)CCC(N)=O)C(=O)O [APP-pY682] (H-QNG[pY]ENPT-OH)
- Kd (Vav2-SH2 domain [1]; pH 7.4, 0.75 mM peptide titrated into 30 μM Vav2-SH2, single-site binding model): 860 nM

Molecule: Grb2 SH2 (from UniProt P62993)
- Kd [2]: 290 nM

Molecule: QNGYENPT [APP-Y682]
- binding in ITC (result in words) (Vav2-SH2 domain [1]; pH 7.4, 0.75 mM peptide titrated into 30 μM Vav2-SH2): no binding
- chemical shift perturbations (CSPs) in 1H-15N HSQC of Vav2-SH2 (Vav2-SH2 domain [3]): did not induce any chemical shift perturbations

B1: GST-Vav2-SH2: wild-type GST-Vav2-SH2 protein (protein)
chain: T1 sequence (P52735 659-771)
modifications: left off: GST, end not stated, kept
notes: wild-type GST-Vav2-SH2 protein
- binding to full-length APPsw in GST pull-down (result in words) (full-length APPsw): bound selectively to full-length APPsw

B2: R680A mutant: R680A mutant of GST-Vav2-SH2 protein (negative control) (protein)
chain: T1 sequence (P52735 659-771) with R22A
modifications: left off: GST, end not stated, kept
- binding to full-length APPsw in GST pull-down (result in words) (full-length APPsw): not GST alone or the R680A mutant bound selectively to full-length APPsw
